Results: the NIST ThermoML archive (doi:10.1021/je100145f)
Where “and” joins values, the source holds several entries; their conditions need not be identical. Identical values can stand only once. Numbers after ± are expanded uncertainties.

Assays:
[1] = molar heat capacity at constant pressure; xn = mol fraction of the nth substance listed; conditions: 101 kPa, Liquid, Small sample (50 mg) DSC, x2 = 0
[2] = xn = mol fraction of the nth substance listed; conditions: 101 kPa, Liquid, Vibrating tube method, x2 = 0
[3] = 101 kPa, Liquid, Vibrating tube method
[4] = molar heat capacity at constant pressure; conditions: 101 kPa, Liquid, Small sample (50 mg) DSC

Question: For `CCCCCCCCC` [nonane] + N#Cc1ccccc1, which “molar heat capacity at constant pressure” value ([1]; 285.15 K) is on record?
Answer: 278.38 ± 5.6 J/K/mol

Question: And the “molar heat capacity at constant pressure” value ([1]; 288.15 K)?
Answer: 279.6 ± 5.6 J/K/mol

Question: And the “molar heat capacity at constant pressure” value ([1]; 293.15 K)?
Answer: 281.72 ± 5.6 J/K/mol

Question: What about the “molar heat capacity at constant pressure” value ([1]; 298.15 K) of the same molecule?
Answer: 283.86 ± 5.7 J/K/mol

Question: And the “molar heat capacity at constant pressure” value ([1]; 303.15 K)?
Answer: 286.11 ± 5.7 J/K/mol

Question: What about the “molar heat capacity at constant pressure” value ([1]; 308.15 K) of the same molecule?
Answer: 288.4 ± 5.8 J/K/mol

Question: And the “molar heat capacity at constant pressure” value ([1]; 313.15 K)?
Answer: 290.76 ± 5.8 J/K/mol

Question: What about the mass density ([2]; 285.15 K) of the same molecule?
Answer: 724.54 ± 0.31 kg/m3

Question: And the mass density ([2]; 288.15 K)?
Answer: 722.22 ± 0.32 kg/m3

Question: What about the mass density ([2]; 293.15 K) of the same molecule?
Answer: 718.35 ± 0.32 kg/m3

Question: What about the mass density ([2]; 298.15 K) of the same molecule?
Answer: 714.46 ± 0.32 kg/m3

Question: What about the mass density ([2]; 303.15 K) of the same molecule?
Answer: 710.55 ± 0.32 kg/m3

Question: What about the mass density ([2]; 308.15 K) of the same molecule?
Answer: 706.63 ± 0.32 kg/m3

Question: What about the mass density ([2]; 313.15 K) of the same molecule?
Answer: 702.7 ± 0.32 kg/m3

Question: Which results are given for `CCCCCCCC` [octane]?
Answer: mass density ([3]; 283.15 K): 710.76 ± 0.22 kg/m3; mass density ([3]; 288.15 K): 706.76 ± 0.22 kg/m3; mass density ([3]; 293.15 K): 702.74 ± 0.22 kg/m3; mass density ([3]; 298.15 K): 698.71 ± 0.23 kg/m3; mass density ([3]; 303.15 K): 694.66 ± 0.23 kg/m3; mass density ([3]; 308.15 K): 690.58 ± 0.23 kg/m3; mass density ([3]; 313.15 K): 686.49 ± 0.23 kg/m3; mass density ([3]; 318.15 K): 682.37 ± 0.23 kg/m3; molar heat capacity at constant pressure ([4]; 283.15 K): 248.2 ± 5 J/K/mol; molar heat capacity at constant pressure ([4]; 288.15 K): 250.1 ± 5 J/K/mol; molar heat capacity at constant pressure ([4]; 293.15 K): 252.06 ± 5 J/K/mol; molar heat capacity at constant pressure ([4]; 298.15 K): 254.08 ± 5.1 J/K/mol; molar heat capacity at constant pressure ([4]; 303.15 K): 256.16 ± 5.1 J/K/mol; molar heat capacity at constant pressure ([4]; 308.15 K): 258.28 ± 5.2 J/K/mol; molar heat capacity at constant pressure ([4]; 313.15 K): 260.45 ± 5.2 J/K/mol; molar heat capacity at constant pressure ([4]; 318.15 K): 262.66 ± 5.2 J/K/mol

Question: Which results are given for `N#Cc1ccccc1` [benzonitrile]?
Answer: mass density ([3]; 283.15 K): 1013.99 ± 0.31 kg/m3; mass density ([3]; 285.15 K): 1012.21 ± 0.31 kg/m3; mass density ([3]; 288.15 K): 1009.55 ± 0.31 kg/m3; mass density ([3]; 293.15 K): 1005.12 ± 0.3 kg/m3; mass density ([3]; 298.15 K): 1000.69 ± 0.3 kg/m3; mass density ([3]; 303.15 K): 996.26 ± 0.3 kg/m3; mass density ([3]; 308.15 K): 991.83 ± 0.3 kg/m3; mass density ([3]; 313.15 K): 987.4 ± 0.3 kg/m3; mass density ([3]; 318.15 K): 982.96 ± 0.3 kg/m3; molar heat capacity at constant pressure ([4]; 283.15 K): 163.43 ± 3.3 J/K/mol; molar heat capacity at constant pressure ([4]; 285.15 K): 163.9 ± 3.3 J/K/mol; molar heat capacity at constant pressure ([4]; 288.15 K): 164.61 ± 3.3 J/K/mol and 164.63 ± 3.3 J/K/mol; molar heat capacity at constant pressure ([4]; 293.15 K): 165.82 ± 3.3 J/K/mol; molar heat capacity at constant pressure ([4]; 298.15 K): 167.06 ± 3.3 J/K/mol; molar heat capacity at constant pressure ([4]; 303.15 K): 168.32 ± 3.4 J/K/mol; molar heat capacity at constant pressure ([4]; 308.15 K): 169.59 ± 3.4 J/K/mol; molar heat capacity at constant pressure ([4]; 313.15 K): 170.87 ± 3.4 J/K/mol; molar heat capacity at constant pressure ([4]; 318.15 K): 172.15 ± 3.4 J/K/mol

Question: Which results are given for `CCCCCCCCC` [nonane]?
Answer: mass density ([3]; 285.15 K): 724.54 ± 0.31 kg/m3; mass density ([3]; 288.15 K): 722.22 ± 0.32 kg/m3; mass density ([3]; 293.15 K): 718.35 ± 0.32 kg/m3; mass density ([3]; 298.15 K): 714.46 ± 0.32 kg/m3; mass density ([3]; 303.15 K): 710.55 ± 0.32 kg/m3; mass density ([3]; 308.15 K): 706.63 ± 0.32 kg/m3; mass density ([3]; 313.15 K): 702.7 ± 0.32 kg/m3; molar heat capacity at constant pressure ([4]; 285.15 K): 278.38 ± 5.6 J/K/mol; molar heat capacity at constant pressure ([4]; 288.15 K): 279.6 ± 5.6 J/K/mol; molar heat capacity at constant pressure ([4]; 293.15 K): 281.72 ± 5.6 J/K/mol; molar heat capacity at constant pressure ([4]; 298.15 K): 283.86 ± 5.7 J/K/mol; molar heat capacity at constant pressure ([4]; 303.15 K): 286.11 ± 5.7 J/K/mol; molar heat capacity at constant pressure ([4]; 308.15 K): 288.4 ± 5.8 J/K/mol; molar heat capacity at constant pressure ([4]; 313.15 K): 290.76 ± 5.8 J/K/mol

Question: Which results are given for `CCCCCCCC` [octane] + N#Cc1ccccc1?
Answer: molar heat capacity at constant pressure ([1]; 283.15 K): 248.2 ± 5 J/K/mol; molar heat capacity at constant pressure ([1]; 288.15 K): 250.1 ± 5 J/K/mol; molar heat capacity at constant pressure ([1]; 293.15 K): 252.06 ± 5 J/K/mol; molar heat capacity at constant pressure ([1]; 298.15 K): 254.08 ± 5.1 J/K/mol; molar heat capacity at constant pressure ([1]; 303.15 K): 256.16 ± 5.1 J/K/mol; molar heat capacity at constant pressure ([1]; 308.15 K): 258.28 ± 5.2 J/K/mol; molar heat capacity at constant pressure ([1]; 313.15 K): 260.45 ± 5.2 J/K/mol; molar heat capacity at constant pressure ([1]; 318.15 K): 262.66 ± 5.2 J/K/mol; mass density ([2]; 283.15 K): 710.76 ± 0.22 kg/m3; mass density ([2]; 288.15 K): 706.76 ± 0.22 kg/m3; mass density ([2]; 293.15 K): 702.74 ± 0.22 kg/m3; mass density ([2]; 298.15 K): 698.71 ± 0.23 kg/m3; mass density ([2]; 303.15 K): 694.66 ± 0.23 kg/m3; mass density ([2]; 308.15 K): 690.58 ± 0.23 kg/m3; mass density ([2]; 313.15 K): 686.49 ± 0.23 kg/m3; mass density ([2]; 318.15 K): 682.37 ± 0.23 kg/m3
